In one experiment the test system is INS+ cells. The experiment can be described thus: High-content survival / inhibitory curve, hESC-derived INS+ cells. The class given is cell-based, human. How it is done: (§1) The screening library ToxCast Phase I was obtained from the US Environmental Protection Agency, which contains approximately 2000 compounds dissolved at 20 mM in DMSO. The H1 hESC-derived population was dissociated with Accutase and re-plated onto laminin V-coated 384-well plates at 5000 cells per well. After 16 h incubation, cells were treated with individual compounds from the ToxCast library with four concentrations, including 20 nM, 200 nM, 2 μM, and 20 μM, for each compound. After 4 days, the cells were fixed with 10% formalin and stained with an INS antibody and DAPI, followed by automatic imaging and analysis by ImageXpress^MICRO Automated High-Content Analysis System (Molecular Devices) to count the numbers of INS^+ and INS^− cells. The survival rate was calculated by dividing the numbers of INS^+ cells in compound treated conditions by the average number of INS^+ cells in DMSO-treated conditions. The compounds that induced more than 60% reduction of the survival rate of INS^+ cells and less than 20% of the INS^− cells were chosen as primary hits. Hit compounds were then selected and validated in three additional independent experiments using the same protocol as the primary screening.
hESCs-derived INS^+ cells, MSCs[43], neurons, and hepatocytes[44] were derived based on the reported protocols and re-plated on 96-well plates with Accutase digestion. Cardiomyocytes (CMs) were differentiated from H9-MYH6: mCherry reporter line, based on the reported protocol. After overnight incubation, cells were treated with DMSO or different doses of hit compounds for 4 days. After fixation, the cells were stained with markers for each cell type. DAPI was used to stain cell nuclei. Plates were analyzed by ImageXpress^MICRO Automated High-Content Analysis System.

Another experiment relates to INS- cells. In words: High-content survival / inhibitory curve, hESC-derived INS- cells. The following applies: Homo sapiens, 96 h; H1 hESC-derived, β-cell differentiation protocol 1, 4 days treatment, n = 8. The class given is cell-based, human. How it is done:
as §1, with “Hit compounds were then selected and validated in three additional independent experiments using the same protocol as the primary screening.” left out
hESCs-derived INS^+ cells, MSCs[43], neurons, and hepatocytes[44] were derived based on the reported protocols and re-plated on 96-well plates with Accutase digestion. […] Plates were analyzed by ImageXpress^MICRO Automated High-Content Analysis System.

The test system of another experiment is primary human islets. The experiment can be described thus: Primary human islets, INS and propidium iodide staining. The class given is cell-based. The following applies: 2 mM GSH. An excerpt: Fig. 1 A high-content screen identifies propargite as a compound that induces pancreatic β-cell death. a Scheme of pancreatic β-cell differentiation and high-content chemical screen. b Chemical structure of two hit compounds: Propargite and Vacor. c Inhibitory curve and IC50 of propargite or Vacor on INS^+ and INS^− cells (n = 8). d, e Immunocytochemistry analysis (d) and survival rate (e) of H1-derived glucose-responding INS^+ and INS^− cells treated with different doses of propargite (n = 8). Pancreatic β-like cells were stained for INS (green) and all cells were counterstained by DAPI (blue). Scale bars, 100 μm. The survival rate was calculated by dividing the average number of cells in propargite-treated conditions by the average number of cells in the DMSO control. f, g Representative live images (f) and fold-change (g) of INS^w/GFP HES3-derived INS-GFP^+ cells treated with 1.6 μM propargite or DMSO control at different time points compared to initial time 0 (n = 3). Scale bars, 100 μm. h, i, j Representative images (h) and cell survival rate (i) or cell death rate (j) of DMSO or propargite-treated human primary islets (n = 3). Pancreatic β-cells were stained with the INS antibody (green) and dead cells were stained with propidium iodide (PI) (red). Scale bars, 200 μm. Scale bars for higher resolution (Zoom) images, […]. Pancreatic β-cell death rate was calculated by defining percentages of INS^+ PI^+ cells in INS^+ cells, and non-β-cell death rate was calculated by percentages of INS^−PI^+ cells in INS^− cells.

The next experiment has as its system MIN6 cells. In words: Western blotting of γ-H2A.X and extracellular HMGB1 in MIN6 cells. It is filed as cell-based, mouse. The following applies: 2 mM GSH, day 4. The source says: To extract intracellular protein, cells were placed on ice, washed twice with ice-cold PBS and lysed immediately with RIPA buffer (Life Technologies, 89900) supplemented with a protease inhibitor cocktail (Life Technologies, 78440). Cell lysates were then sonicated and the soluble fraction was collected after centrifugation. Protein amount was quantified by the BCA protein assay (Life Technologies, 23227). To extract extracellular HMGB1, tissue culture media were collected and concentrated using Afyon SDS-PAGE sample preparation kit (advansta, K-02101-025). 20 μg of total protein for each sample was mixed with loading buffer and incubated for 5 min at 95 °C before being loaded into NuPAGE® Novex® 4–12% […] Protein Gels (Life Technologies, NP0321BOX) for electrophoresis. Separated proteins were transferred to a PVDF membrane (Millipore, IPSN07852) after electrophoresis. The membrane was blocked with 5% non-fat milk in TBST (50 mM Tris–HCl at pH 8.0, 150 mM NaCl, 0.1% Tween 20) followed by overnight incubation with the primary antibody at 4 °C. The following antibodies were used with the dilution ratio noted: rabbit anti-HMGB1 (1:1000, Cell Signaling Technology, #6893), rabbit anti-γ-H2A.X (1:1000, Cell Signaling Technology, #9718), rabbit anti-LC3B (1:1000, Cell Signaling Technology, #3868), mouse anti-GSTT1 (1:1000, GeneTex, GTX109250), rabbit anti-GSTM1 (1:1000, R&D system, MAB6894), mouse anti-GAPDH (1:50000, Abcam, ab8245). A peroxidase conjugated horse anti-mouse IgG secondary antibody (1:20000, Vector Laboratories, PI-2000) or peroxidase conjugated goat anti-Rabbit IgG secondary antibody (1:20000, Vector Laboratories, PI-1000) was used for western blot. ECL signals were developed and detected using the SuperSignal™ West Femto Maximum Sensitivity Substrate (Life Technologies, 34094) and a C-DiGit Chemiluminescent Western Blot Scanner (LI-COR). Uncropped scans of all the blots were shown in Supplementary Fig. 7 in the Supplementary Information.
(In general: Immunoblotting shows a protein as a band on a membrane.)

Molecules are shown by their SMILES.

Usually IC50 stands for the concentration that inhibits the measured activity by half.

With `O=C(NCc1cccnc1)Nc1ccc([N+](=O)[O-])cc1` [Vacor, N-3 pyridylmethyl-N′’-4-nitrophenyl urea], the concentration for half-maximal inhibition (IC50) in the experiment on INS+ cells (Homo sapiens, 96 h, read-out: IC50 for INS+ cells) amounted to 4.89 µM; in the experiment with INS- cells, 61.6 µM.

As to `N[C@@H](CCC(=O)N[C@@H](CS)C(=O)NCC(=O)O)C(=O)O` [GSH, glutathione, reference compound], the “rescue of survival rate of INS+ cells after propargite treatment” value in the experiment on INS+ cells (2 mM GSH) is “fully rescued”. The “rescue of propargite-induced β-cell-specific death in human islets” value with primary human islets is reported as “rescued”. In the experiment with MIN6 cells, the “rescue of propargite-induced DNA damage (γ-H2A.X expression)” value is given as “fully rescued” and the “rescue of propargite-induced necrosis (extracellular HMGB1)” value is “partially rescued”.

For the origin of these results see paper PMC6240096, “A hPSC-based platform to discover gene-environment interactions that impact human β-cell and dopamine neuron survival” (Nature Communications, 2018).
